ChEMBL document CHEMBL5528010, “The discovery of aryl-2-nitroethyl triamino pyrimidines as anti-Trypanosoma brucei agents” (Eur J Med Chem, 2024)

How the values were obtained:
[1] = test system: Trypanosoma brucei; experiment: Antiparasitic activity against blood stream form Trypanosoma brucei assessed as parasitic growth inhibition incubated for 72 hrs by resazurin dye based fluorescence analysis; format: functional, organism-based
[2] = test system: THP-1; experiment: Cytotoxicity against human THP-1 cells assessed as reduction in cell viability measured after 72 hrs by MTT assay; format: functional
[3] = Inhibition of N-terminal his 6 tagged recombinant Trypanosoma brucei PTR1 expressed in Escherichia coli BL21 (DE3) cells preincubated for 10 mins followed by NADPH addition and measured after 10 to 50 mins by multilabel plate reader method; format: cell-based
[4] = Selectivity index, ratio of CC50 for human THP-1 cells to EC50 for bloodstream form Trypanosoma brucei; format: toxicity; conditions: read-out: Ratio CC50/EC50
[5] = target: T1, Pteridine reductase 1 (Leishmania major, UniProt Q01782); experiment: Inhibition of N-terminal his 6 tagged recombinant Leishmania major PTR1 expressed in Escherichia coli BL21 (DE3) cells preincubated for 10 mins followed by NADPH addition and measured after 10 to 50 mins by multilabel plate reader method
T1 sequence (Q01782 whole entry): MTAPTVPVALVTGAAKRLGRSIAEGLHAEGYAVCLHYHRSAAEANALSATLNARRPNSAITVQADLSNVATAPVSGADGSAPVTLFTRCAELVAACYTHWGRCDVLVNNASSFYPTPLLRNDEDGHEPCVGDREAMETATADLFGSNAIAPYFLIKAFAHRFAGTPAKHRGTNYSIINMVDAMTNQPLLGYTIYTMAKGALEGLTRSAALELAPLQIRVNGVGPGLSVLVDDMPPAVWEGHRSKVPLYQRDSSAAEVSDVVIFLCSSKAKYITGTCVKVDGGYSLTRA

[6] = test system: Leishmania infantum; experiment: Antiparasitic activity against Leishmania infantum intracellular amastigotes MHOM/BR/1972/BH46 infected in human THP-1 cells assessed as inhibition of parasitic growth at 50 uM pre-infected for 24 hrs followed by compound addition and measured after 48 hrs relative to control; format: functional; conditions: MHOM/BR/1972/BH46, THP-1
[7] = target: Voltage-gated inwardly rectifying potassium channel KCNH2 (Homo sapiens, UniProt Q12809); experiment: Inhibition of human ERG incubated for 2 hrs by fluorescence polarization assay; format: toxicity
Sequence of Voltage-gated inwardly rectifying potassium channel KCNH2 (Q12809 whole entry): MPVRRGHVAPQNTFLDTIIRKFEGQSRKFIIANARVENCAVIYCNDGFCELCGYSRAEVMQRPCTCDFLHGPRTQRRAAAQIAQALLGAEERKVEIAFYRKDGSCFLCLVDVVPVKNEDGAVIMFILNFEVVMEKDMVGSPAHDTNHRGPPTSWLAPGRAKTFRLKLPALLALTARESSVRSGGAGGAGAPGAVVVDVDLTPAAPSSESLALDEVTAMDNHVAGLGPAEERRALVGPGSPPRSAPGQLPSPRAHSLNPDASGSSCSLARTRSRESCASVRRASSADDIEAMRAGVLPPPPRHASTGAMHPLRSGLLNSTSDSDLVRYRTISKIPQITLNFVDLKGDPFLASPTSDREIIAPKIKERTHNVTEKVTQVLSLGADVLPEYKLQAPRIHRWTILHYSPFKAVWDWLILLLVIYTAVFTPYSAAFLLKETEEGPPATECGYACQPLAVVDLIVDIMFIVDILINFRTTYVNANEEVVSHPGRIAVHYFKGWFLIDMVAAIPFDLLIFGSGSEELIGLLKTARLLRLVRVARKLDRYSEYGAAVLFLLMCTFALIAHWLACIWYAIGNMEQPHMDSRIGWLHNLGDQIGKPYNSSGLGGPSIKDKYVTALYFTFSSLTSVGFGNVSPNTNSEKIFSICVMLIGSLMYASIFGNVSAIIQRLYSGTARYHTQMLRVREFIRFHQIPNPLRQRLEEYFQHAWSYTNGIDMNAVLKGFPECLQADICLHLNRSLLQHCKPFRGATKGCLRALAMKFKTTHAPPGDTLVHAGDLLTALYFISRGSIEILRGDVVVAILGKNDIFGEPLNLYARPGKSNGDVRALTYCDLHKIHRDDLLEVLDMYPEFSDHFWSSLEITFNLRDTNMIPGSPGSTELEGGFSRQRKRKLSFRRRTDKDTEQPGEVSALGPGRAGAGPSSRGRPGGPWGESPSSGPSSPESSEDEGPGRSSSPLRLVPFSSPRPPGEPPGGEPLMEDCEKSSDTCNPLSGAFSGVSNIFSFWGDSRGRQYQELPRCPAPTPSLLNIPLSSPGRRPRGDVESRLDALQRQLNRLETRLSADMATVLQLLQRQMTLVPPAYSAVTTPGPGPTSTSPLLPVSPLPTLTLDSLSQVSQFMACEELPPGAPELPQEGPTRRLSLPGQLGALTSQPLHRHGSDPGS

[8] = target: T2, Cytochrome P450 1A2 (Homo sapiens, UniProt P05177); experiment: Inhibition of CYP1A2 (unknown origin) expressed in baculovirus infected insect cells using luciferin as substrate preincubated for 30 mins followed by NADPH addition and measured after 30 mins by luminescence based analysis; format: ADME, Insect cell
T2 sequence (P05177 whole entry): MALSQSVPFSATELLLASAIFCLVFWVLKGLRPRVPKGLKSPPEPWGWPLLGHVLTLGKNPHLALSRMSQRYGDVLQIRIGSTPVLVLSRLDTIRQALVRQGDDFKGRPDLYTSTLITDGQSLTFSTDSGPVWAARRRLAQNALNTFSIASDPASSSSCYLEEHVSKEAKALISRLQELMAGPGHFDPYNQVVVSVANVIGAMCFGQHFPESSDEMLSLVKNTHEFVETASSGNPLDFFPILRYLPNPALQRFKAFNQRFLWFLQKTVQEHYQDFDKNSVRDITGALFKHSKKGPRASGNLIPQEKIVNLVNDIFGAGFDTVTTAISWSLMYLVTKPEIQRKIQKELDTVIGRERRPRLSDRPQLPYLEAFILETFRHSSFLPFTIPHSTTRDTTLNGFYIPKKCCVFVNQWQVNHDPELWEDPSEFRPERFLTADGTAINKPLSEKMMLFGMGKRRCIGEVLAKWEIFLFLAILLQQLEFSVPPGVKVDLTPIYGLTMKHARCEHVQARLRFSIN

[9] = Cmax in BALB/c mouse at 20 mg/kg, po measured upto 24 hrs by LC-MS/MS analysis; format: ADME, organism-based; conditions: in vivo
[10] = Tmax in BALB/c mouse at 20 mg/kg, po measured upto 24 hrs by LC-MS/MS analysis; format: ADME, organism-based; conditions: in vivo
[11] = Mitochondrial toxicity in human A549 cells; format: cell-based
[12] = target: Cytochrome P450 2C19 (Homo sapiens, UniProt P33261); experiment: Inhibition of CYP2C19 (unknown origin) expressed in baculovirus infected insect cells using luciferin as substrate preincubated for 30 mins followed by NADPH addition and measured after 30 mins by luminescence based analysis; format: ADME, Insect cell
Sequence of Cytochrome P450 2C19 (P33261 whole entry): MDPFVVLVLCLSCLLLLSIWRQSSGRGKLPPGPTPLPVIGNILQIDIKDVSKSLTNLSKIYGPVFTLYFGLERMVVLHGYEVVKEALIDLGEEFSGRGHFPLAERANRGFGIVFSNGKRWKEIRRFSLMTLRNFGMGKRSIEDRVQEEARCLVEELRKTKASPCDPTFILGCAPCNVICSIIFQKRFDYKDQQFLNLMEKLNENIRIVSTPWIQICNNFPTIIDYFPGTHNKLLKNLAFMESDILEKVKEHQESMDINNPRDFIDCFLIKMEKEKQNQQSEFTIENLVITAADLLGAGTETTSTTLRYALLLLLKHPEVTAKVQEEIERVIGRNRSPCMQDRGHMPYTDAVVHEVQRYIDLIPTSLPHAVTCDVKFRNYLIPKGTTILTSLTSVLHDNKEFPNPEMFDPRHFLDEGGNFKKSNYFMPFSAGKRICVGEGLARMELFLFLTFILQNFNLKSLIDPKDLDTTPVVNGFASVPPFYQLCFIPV

[13] = target: Cytochrome P450 2D6 (Homo sapiens, UniProt P10635); experiment: Inhibition of CYP2D6 (unknown origin) expressed in baculovirus infected insect cells using luciferin as substrate preincubated for 30 mins followed by NADPH addition and measured after 30 mins by luminescence based analysis; format: ADME, Insect cell
Sequence of Cytochrome P450 2D6 (P10635 whole entry): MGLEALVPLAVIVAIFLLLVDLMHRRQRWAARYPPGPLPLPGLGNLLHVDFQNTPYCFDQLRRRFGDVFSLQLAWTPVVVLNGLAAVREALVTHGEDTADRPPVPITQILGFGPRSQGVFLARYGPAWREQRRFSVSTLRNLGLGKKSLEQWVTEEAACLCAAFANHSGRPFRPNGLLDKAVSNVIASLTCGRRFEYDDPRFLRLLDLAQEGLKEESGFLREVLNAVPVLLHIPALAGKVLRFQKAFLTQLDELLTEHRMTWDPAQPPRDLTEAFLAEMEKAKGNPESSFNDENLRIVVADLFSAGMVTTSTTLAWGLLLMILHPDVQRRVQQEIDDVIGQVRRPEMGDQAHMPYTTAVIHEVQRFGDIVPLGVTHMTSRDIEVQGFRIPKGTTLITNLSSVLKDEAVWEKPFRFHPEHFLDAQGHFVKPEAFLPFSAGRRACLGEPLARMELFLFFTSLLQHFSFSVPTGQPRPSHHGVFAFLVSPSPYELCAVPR

[14] = target: Cytochrome P450 3A4 (Homo sapiens, UniProt P08684); experiment: Inhibition of CYP3A4 (unknown origin) expressed in baculovirus infected insect cells using luciferin as substrate preincubated for 30 mins followed by NADPH addition and measured after 30 mins by luminescence based analysis; format: ADME, Insect cell
Sequence of Cytochrome P450 3A4 (P08684 whole entry): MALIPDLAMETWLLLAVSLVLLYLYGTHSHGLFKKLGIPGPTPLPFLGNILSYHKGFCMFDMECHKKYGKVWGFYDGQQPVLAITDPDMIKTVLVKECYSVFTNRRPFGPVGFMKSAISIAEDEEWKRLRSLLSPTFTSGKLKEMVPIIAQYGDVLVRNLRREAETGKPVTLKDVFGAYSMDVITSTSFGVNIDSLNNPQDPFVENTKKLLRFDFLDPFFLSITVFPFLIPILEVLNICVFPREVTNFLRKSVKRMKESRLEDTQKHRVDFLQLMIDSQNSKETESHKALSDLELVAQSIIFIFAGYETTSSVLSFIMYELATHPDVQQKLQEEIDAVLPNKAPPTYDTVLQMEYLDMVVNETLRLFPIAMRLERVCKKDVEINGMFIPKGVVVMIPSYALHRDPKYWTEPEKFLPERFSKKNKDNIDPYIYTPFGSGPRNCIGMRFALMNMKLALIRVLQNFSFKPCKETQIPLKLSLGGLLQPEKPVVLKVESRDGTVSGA

[15] = test system: CYP2C9; experiment: Selectivity index, ratio of IC50 for CYP2C9 (unknown origin) to EC50 for blood stream form Trypanosoma brucei; format: toxicity; conditions: read-out: Ratio IC50/EC50
[16] = test system: CYP3A4; experiment: Selectivity index, ratio of IC50 for CYP3A4 (unknown origin) to EC50 for blood stream form Trypanosoma brucei; format: toxicity; conditions: read-out: Ratio IC50/EC50
[17] = Selectivity index, ratio of IC50 for human A549 cells to EC50 for blood stream form Trypanosoma brucei; format: toxicity; conditions: read-out: Ratio IC50/EC50
[18] = test system: CYP2C19; experiment: Selectivity index, ratio of IC50 for CYP2C19 (unknown origin) to EC50 for blood stream form Trypanosoma brucei; format: toxicity; conditions: read-out: Ratio IC50/EC50
[19] = Selectivity index, ratio of GI50 for human A549 cells to EC50 for blood stream form Trypanosoma brucei; format: toxicity; conditions: read-out: Ratio GI50/EC50
[20] = test system: hERG; experiment: Selectivity index, ratio of IC50 for human ERG to EC50 for blood stream form Trypanosoma brucei; format: toxicity; conditions: read-out: Ratio IC50/EC50
[21] = test system: CYP1A2; experiment: Selectivity index, ratio of IC50 for CYP1A2 (unknown origin) to EC50 for blood stream form Trypanosoma brucei; format: toxicity; conditions: read-out: Ratio IC50/EC50
[22] = target: Cytochrome P450 2C9 (Homo sapiens, UniProt P11712); experiment: Inhibition of CYP2C9 (unknown origin) expressed in baculovirus infected insect cells using luciferin as substrate preincubated for 30 mins followed by NADPH addition and measured after 30 mins by luminescence based analysis; format: ADME, Insect cell
Sequence of Cytochrome P450 2C9 (P11712 whole entry): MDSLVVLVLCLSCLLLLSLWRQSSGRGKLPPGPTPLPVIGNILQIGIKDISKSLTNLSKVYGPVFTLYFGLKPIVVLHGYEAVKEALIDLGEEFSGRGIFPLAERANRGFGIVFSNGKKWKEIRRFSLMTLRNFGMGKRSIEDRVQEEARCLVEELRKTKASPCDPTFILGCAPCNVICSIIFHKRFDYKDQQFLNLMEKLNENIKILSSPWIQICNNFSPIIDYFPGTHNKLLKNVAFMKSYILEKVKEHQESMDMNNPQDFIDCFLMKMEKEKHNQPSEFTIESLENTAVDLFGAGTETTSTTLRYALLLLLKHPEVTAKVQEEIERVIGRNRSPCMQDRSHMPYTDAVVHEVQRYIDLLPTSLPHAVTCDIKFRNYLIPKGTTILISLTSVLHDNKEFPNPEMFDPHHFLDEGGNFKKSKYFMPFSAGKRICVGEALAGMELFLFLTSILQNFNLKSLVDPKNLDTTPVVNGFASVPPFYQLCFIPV

[23] = Growth inhibition of human A549 cells measured after 48 hrs by celltiter-glo assay; format: toxicity, cell-based
[24] = Half life in BALB/c mouse at 20 mg/kg, po measured upto 24 hrs by LC-MS/MS analysis; format: ADME, organism-based; conditions: in vivo
[25] = test system: CYP2D6; experiment: Selectivity index, ratio of IC50 for CYP2D6 (unknown origin) to EC50 for blood stream form Trypanosoma brucei; format: toxicity; conditions: read-out: Ratio IC50/EC50
[26] = AUC last in BALB/c mouse at 20 mg/kg, po measured upto 24 hrs by LC-MS/MS analysis; format: ADME, organism-based; conditions: in vivo
[27] = test system: Trypanosoma brucei; experiment: Antiparasitic activity against blood stream form Trypanosoma brucei assessed as parasitic growth inhibition at 10 uM incubated for 72 hrs by resazurin dye based fluorescence analysis relative to control; format: functional; parameters: scale not given: the % may be the effect or the level left

Row | Compound | EC50 [1] [µM] | CC50 [2] [µM] | IC50 [3] [µM] | selectivity ratio [4] | IC50 [5] [µM] | inhibition at 50 µM [6] [%] | other results
1 | Nc1nc(N)c(C(C[N+](=O)[O-])c2ccc(Cl)cc2)c(N)n1 (stereo unspecified) | 1.28 | 25 | < 0.1 | 19 | – | – | –
2 | Nc1cc(N)nc(N)n1 | – | – | 2.38 | – | 4.01 | – | –
3 | COc1cc(C(C[N+](=O)[O-])c2c(N)nc(N)nc2N)ccc1O (stereo unspecified) | 2.13 | 50 | 0.07 | 23 | 19.8 | 21.6 | –
4 | Nc1nc(N)c(C(C[N+](=O)[O-])c2ccc(Cl)c(Cl)c2)c(N)n1 (stereo unspecified) | 0.82 | 25 | 0.15 | 31 | 60.2 | 53.9 | –
5 | Nc1nc(N)c(C(C[N+](=O)[O-])c2ccccc2OCc2ccc(Cl)c(Cl)c2)c(N)n1 (stereo unspecified) | 0.3 | 25 | 0.27 | 83 | 46 | 11.7 | IC50 [7]: > 100 µM; IC50 [8]: 1.2 µM; Cmax [9]: 373 ng/mL; Tmax [10]: 0.5 h; IC50 [11]: 3.9 µM; IC50 [12]: 8 µM; IC50 [13]: 5.9 µM; IC50 [14]: 5.9 µM; selectivity ratio [15]: 11; selectivity ratio [16]: 20; selectivity ratio [17]: 13; selectivity ratio [18]: 26; selectivity ratio [19]: 33; selectivity ratio [20]: > 300; selectivity ratio [21]: 4; IC50 [22]: 3.2 µM; GI50 at 48 h [23]: 10 µM; half-life [24]: 3 h; selectivity ratio [25]: 20; AUC(0-t) at 24 h [26]: 1180 ng·h/mL
6 | Nc1nc(N)c(C(C[N+](=O)[O-])c2ccc3c(c2)OCO3)c(N)n1 (stereo unspecified) | 0.5 | 25 | 0.25 | 50 | – | – | –
7 | Nc1nc(N)c(C(C[N+](=O)[O-])c2cccc([N+](=O)[O-])c2)c(N)n1 (stereo unspecified) | 1.19 | 50 | < 0.1 | 42 | 63.4 | 74.2 | –
8 | Nc1nc(N)c(C(C[N+](=O)[O-])c2c[nH]c3ccccc23)c(N)n1 (stereo unspecified) | – | – | < 0.1 | – | 13.9 | 4 | Activity [27]: 28%
9 | CCc1nc(N)nc(N)c1-c1ccc(Cl)cc1 [PYRIMETHAMINE] | – | – | 0.09 | – | – | – | –
10 | Cc1ccc(C(C[N+](=O)[O-])c2c(N)nc(N)nc2N)s1 (stereo unspecified) | 2.41 | 100 | 0.39 | 42 | – | 15.4 | –
11 | Nc1nc(N)c(C(C[N+](=O)[O-])c2ccc3c(c2)OCCO3)c(N)n1 (stereo unspecified) | 1.11 | 12.5 | 0.23 | 11 | 2.5 | 54.4 | Cmax [9]: 25 ng/mL; Tmax [10]: 1 h; half-life [24]: 4.5 h; AUC(0-t) at 24 h [26]: 107 ng·h/mL
12 | Nc1nc(N)c(C(C[N+](=O)[O-])c2cccc(Br)c2)c(N)n1 (stereo unspecified) | 0.65 | 50 | 0.05 | 118 | 58.1 | 30.2 | –
13 | CCCCCCCCCCCCCCCCOP(=O)([O-])OCC[N+](C)(C)C [MILTEFOSINE] | – | – | – | – | – | 1.29 | –
14 | Nc1nc(N)c(C(C[N+](=O)[O-])c2ccc(Br)cc2)c(N)n1 (stereo unspecified) | 1.59 | 25 | < 0.1 | 16 | 64.1 | 83.4 | –
15 | Nc1nc(N)c(C(C[N+](=O)[O-])c2cccc3c2OCO3)c(N)n1 (stereo unspecified) | 1.21 | 12.5 | 0.03 | 10 | 47.6 | 36 | Cmax [9]: 399 ng/mL; Tmax [10]: 0.5 h; half-life [24]: 2.1 h; AUC(0-t) at 24 h [26]: 2700 ng·h/mL
16 | Nc1nc(N)c(C(C[N+](=O)[O-])c2ccccc2OCc2ccccc2[N+](=O)[O-])c(N)n1 (stereo unspecified) | – | – | 0.26 | – | 46.2 | 11.7 | Activity [27]: 48%
17 | Nc1nc(N)c(C(C[N+](=O)[O-])c2ccc3c(c2)CCO3)c(N)n1 (stereo unspecified) | 4.4 | 50 | 0.39 | 11 | 21.3 | 21.1 | –
18 | Nc1nc(N)c(C(C[N+](=O)[O-])c2cccs2)c(N)n1 (stereo unspecified) | 3.33 | 50 | 0.19 | 15 | 4.9 | 22.5 | –
19 | Nc1nc(N)c(C(C[N+](=O)[O-])c2ccccc2OCc2ccccc2)c(N)n1 (stereo unspecified) | 0.6 | > 100 | 0.24 | > 167 | 51.3 | 81.1 | –
20 | COc1cccc(OC)c1C(C[N+](=O)[O-])c1c(N)nc(N)nc1N (stereo unspecified) | 1.68 | 12.5 | 0.13 | 7 | 70.7 | 79.8 | –
21 | Nc1nc(N)c(C(C[N+](=O)[O-])c2ccco2)c(N)n1 (stereo unspecified) | 5.05 | 50 | 0.16 | 10 | 63.8 | – | –
22 | Nc1nc(N)c(C(C[N+](=O)[O-])c2ccc(OCc3ccc(Cl)c(Cl)c3)cc2)c(N)n1 (stereo unspecified) | 0.34 | 50 | 0.22 | 147 | 49.7 | 11.4 | Cmax [9]: 63 ng/mL; Tmax [10]: 2 h; half-life [24]: 3 h; AUC(0-t) at 24 h [26]: 435 ng·h/mL
23 | COc1ccc(C(C[N+](=O)[O-])c2c(N)nc(N)nc2N)cc1OC (stereo unspecified) | 2.33 | 25 | 0.12 | 11 | 2.4 | 62.4 | –
24 | Nc1nc(N)c(C(C[N+](=O)[O-])c2ccccc2OCc2cccc(Cl)c2)c(N)n1 (stereo unspecified) | 0.4 | 12.5 | 0.6 | 31 | 51.3 | 61 | Cmax [9]: 446 ng/mL; Tmax [10]: 0.5 h; half-life [24]: 2.4 h; AUC(0-t) at 24 h [26]: 1820 ng·h/mL
